Data taken from paper PMC6102643, “Different Benzodiazepines Bind with Distinct Binding Modes to GABAA Receptors” (ACS Chemical Biology, 2018).

Tests used:
α2β3γ2-GABAA receptors = target: T1, α2β3γ2-GABAA receptors (Rattus norvegicus, UniProt P18508+P23576); assay: Two-electrode voltage clamp recordings, α2β3γ2 in Xenopus laevis oocytes; assay type: cell-based; settings: GABA eliciting 3% of maximum current; for activity in the oocyte assay at drug concentrations of ≤1 μM: drug ≤1 μM
T1 construct: expressed in transfected cells; host or cells: Xenopus laevis oocytes (mRNA injected)
From the text: Radioligand displacement assays provide information about the binding of a compound to only a specific binding site. To exclude the possibility that compounds 2-R and 3-R bind at a site different from the [^3H]flunitrazepam binding site (and are therefore unable to compete with the radioligand), we decided to determine the efficacies of all our test compounds using two-electrode voltage clamp recordings on α2β3γ2-mRNA-treated Xenopus laevis oocytes (see Figure 5).
Figure 5 Concentration–response curves of drug-induced enhancement of GABA currents. X. laevis oocytes were treated with mRNA for α2β3γ2-GABAA receptors and studied using two-electrode voltage clamp recordings. GABA-induced currents (3% of maximum) were modulated by addition of drug. Data are means ± the standard error of the mean of three independent experiments.
(§1) Radioligand displacement assays were performed in HEK-293 cells transfected with recombinant rat αxβ3γ2 receptors (x = 1, 2, 3, or 5) using 2 nM [^3H]flunitrazepam and 1 nM to 10 μM investigated compound as described previously.[20] Two-electrode voltage clamp recordings were performed on X. laevis oocytes treated with mRNA for the desired subunit combination at a GABA concentration eliciting 3% of the maximum current.[21]

[1] = tested on: α1β3γ2, α3β3γ2, and α5β3γ2 GABAA receptors; assay: Two-electrode voltage clamp recordings, other receptor combinations in oocytes; assay type: cell-based; settings: α1β3γ2, α3β3γ2, α5β3γ2 (and α2β3γ2); Figure S3
Experimental: In addition to the analysis of α2β3γ2-containing GABAA receptors, we also performed similar electrophysiological studies of other receptor combinations such as α1β3γ2, α3β3γ2, and α5β3γ2 (see Figure S3).
as §1

[2] = target: T2, recombinant rat GABAA receptor α1β3γ2 (Rattus norvegicus, UniProt P18508+P62813); assay: [3H]flunitrazepam radioligand displacement, α1β3γ2; assay type: binding
T2 construct: expressed in transfected cells; host or cells: HEK-293
Experimental: (§2) To exclude a binding behavior unique to α2-containing receptors, we also performed similar radioligand displacement studies on other receptor combinations such as recombinantly expressed rat GABAA receptor subtypes α1β3γ2, α3β3γ2, and α5β3γ2 (see Figure S2).
as §1
(§3) Inhibition of [3H]flunitrazepam binding to recombinant α1β3γ2, α2β3γ2, α3β3γ2, α5β3γ2 GABA A
(§4) receptors subtypes. Membranes from HEK 293 cells transfected with GABAA receptor
(§5) subunit combination, (α1β3γ2, α2β3γ2, α3β3γ2, α5β3γ2) were incubated with 2 nM
(§6) [3H]flunitrazepam in the presence of various concentrations of GABAA -R ligands investigated.
(§7) Data shown represent mean ± SEM of three experiments performed in duplicates each. […]

[3] = target: T3, recombinant rat GABAA receptor α3β3γ2 (Rattus norvegicus, UniProt P18508+P20236); assay: [3H]flunitrazepam radioligand displacement, α3β3γ2; assay type: binding
T3 construct: expressed in transfected cells; host or cells: HEK-293
Experimental: as §2, §1, §3, §4, §5, §6, §7

[4] = target: T4, recombinant rat GABAA receptor α5β3γ2 (Rattus norvegicus, UniProt P18508+P19969); assay: [3H]flunitrazepam radioligand displacement, α5β3γ2; assay type: binding; settings: for preference / selectivity for α5-containing receptors: binding affinity at α5 versus other receptor subtypes
T4 construct: expressed in transfected cells; host or cells: HEK-293
Experimental: as §2, §1, §3, §4, §5, §6, §7

[5] = target: T5, recombinant rat GABAA receptor α2β3γ2 (Rattus norvegicus, UniProt P18508+P23576); assay: [3H]flunitrazepam radioligand displacement, α2β3γ2; assay type: binding; settings: for displacement of [3H]flunitrazepam at α2β3γ2 (in words): 2 nM [3H]flunitrazepam, HEK-293 membranes
T5 construct: expressed in transfected cells; host or cells: HEK-293
Experimental: To test our predictions, we performed radioligand displacement studies and compared the potencies of our six chiral benzodiazepine ligands for the inhibition of binding of [^3H]flunitrazepam to α2β3γ2 recombinant rat GABAA receptor subtypes (see Figure 4).
Figure 4 Inhibition of binding of [^3H]flunitrazepam to recombinant α2β3γ2 GABAA receptor subtypes. Membranes from HEK-293 cells transfected with the GABAA receptor subunit combination α2β3γ2 were incubated with 2 nM [^3H]flunitrazepam in the presence of various concentrations of the six BZ site ligands. Data shown are the means ± the standard error of the mean of three independent experiments each performed in duplicate.
as §1, §3, §4, §5, §6, §7

[6] = tested on: recombinant rat αxβ3γ2 receptors (x = 1, 2, 3, or 5); assay: [3H]flunitrazepam radioligand displacement, all receptor subtypes tested; assay type: binding; settings: for displacement of [3H]flunitrazepam in all receptor subtypes (in words): α1β3γ2, α2β3γ2, α3β3γ2, α5β3γ2, even at high micromolar concentrations for non-binders; for subtype selectivity of binding (in words): across α1, α2, α3, α5 subtypes
Experimental: as §2
However, we did observe differences in the potency rank order.
as §1

GABAA receptors = tested on: GABAA receptors; set-up: method as in PMID 17392731, PMID 20727364; settings: cited from earlier work
[7] = tested on: α1-, α3-, and α5-containing GABAA receptors; set-up: method as in PMID 20727364; settings: versus SH-053-2′F-S-CH3; cited from earlier work
[8] = tested on: α2-containing GABAA receptors; set-up: method as in PMID 20727364; settings: versus SH-053-2′F-S-CH3; cited from earlier work

T4 sequence (P19969 32-464 limits assumed): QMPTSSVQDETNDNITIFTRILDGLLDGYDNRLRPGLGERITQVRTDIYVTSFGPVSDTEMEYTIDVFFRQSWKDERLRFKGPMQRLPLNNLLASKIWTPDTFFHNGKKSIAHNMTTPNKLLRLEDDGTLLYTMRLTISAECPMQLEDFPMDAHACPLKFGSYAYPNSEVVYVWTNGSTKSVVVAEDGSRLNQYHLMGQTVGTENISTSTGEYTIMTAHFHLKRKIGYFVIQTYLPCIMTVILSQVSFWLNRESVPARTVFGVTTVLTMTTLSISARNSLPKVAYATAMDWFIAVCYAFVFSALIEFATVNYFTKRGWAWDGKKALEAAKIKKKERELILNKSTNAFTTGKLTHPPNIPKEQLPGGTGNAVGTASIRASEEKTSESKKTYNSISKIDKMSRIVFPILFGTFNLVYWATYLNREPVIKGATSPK
T4 sequence (P63079 26-473 partner): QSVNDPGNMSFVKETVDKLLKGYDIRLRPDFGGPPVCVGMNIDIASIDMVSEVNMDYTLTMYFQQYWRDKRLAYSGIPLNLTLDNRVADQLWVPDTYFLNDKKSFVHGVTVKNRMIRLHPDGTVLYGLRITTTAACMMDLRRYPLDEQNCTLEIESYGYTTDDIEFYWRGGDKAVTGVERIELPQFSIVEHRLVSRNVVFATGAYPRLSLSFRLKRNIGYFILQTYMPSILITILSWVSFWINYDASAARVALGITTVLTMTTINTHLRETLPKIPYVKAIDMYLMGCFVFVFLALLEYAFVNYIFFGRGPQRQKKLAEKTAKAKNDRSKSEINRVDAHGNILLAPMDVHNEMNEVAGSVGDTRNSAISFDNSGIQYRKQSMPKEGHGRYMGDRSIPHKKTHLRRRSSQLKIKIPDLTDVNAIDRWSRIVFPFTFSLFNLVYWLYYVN
T4 sequence (P18508 39-466): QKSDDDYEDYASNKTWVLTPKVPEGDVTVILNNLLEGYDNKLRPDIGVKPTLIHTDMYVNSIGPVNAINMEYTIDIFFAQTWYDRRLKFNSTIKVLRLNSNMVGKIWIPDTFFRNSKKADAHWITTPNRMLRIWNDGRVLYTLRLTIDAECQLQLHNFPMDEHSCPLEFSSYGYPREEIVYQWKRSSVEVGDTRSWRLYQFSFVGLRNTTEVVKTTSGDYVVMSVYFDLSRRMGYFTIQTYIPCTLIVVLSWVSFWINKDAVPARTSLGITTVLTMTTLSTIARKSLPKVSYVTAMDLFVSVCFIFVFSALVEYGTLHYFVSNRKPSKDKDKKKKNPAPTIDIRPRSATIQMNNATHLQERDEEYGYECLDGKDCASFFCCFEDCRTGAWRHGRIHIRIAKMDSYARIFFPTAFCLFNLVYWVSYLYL
T2 sequence (P62813 28-455): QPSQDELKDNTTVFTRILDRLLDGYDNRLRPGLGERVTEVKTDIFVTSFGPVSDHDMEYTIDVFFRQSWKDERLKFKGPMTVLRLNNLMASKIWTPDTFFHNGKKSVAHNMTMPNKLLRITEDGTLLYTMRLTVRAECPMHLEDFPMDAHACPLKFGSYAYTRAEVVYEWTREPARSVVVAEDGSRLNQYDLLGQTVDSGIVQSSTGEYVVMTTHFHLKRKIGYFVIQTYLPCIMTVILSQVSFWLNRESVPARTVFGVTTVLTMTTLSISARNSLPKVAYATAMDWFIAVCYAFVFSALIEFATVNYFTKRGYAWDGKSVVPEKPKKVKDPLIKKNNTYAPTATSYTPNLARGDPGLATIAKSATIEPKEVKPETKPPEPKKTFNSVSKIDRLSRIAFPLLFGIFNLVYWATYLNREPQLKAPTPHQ
T2 sequence (P63079 26-473 partner): as the sequence (P63079 26-473 partner) above
T2 sequence (P18508 39-466): as the sequence (P18508 39-466) above
T3 sequence (P20236 29-493): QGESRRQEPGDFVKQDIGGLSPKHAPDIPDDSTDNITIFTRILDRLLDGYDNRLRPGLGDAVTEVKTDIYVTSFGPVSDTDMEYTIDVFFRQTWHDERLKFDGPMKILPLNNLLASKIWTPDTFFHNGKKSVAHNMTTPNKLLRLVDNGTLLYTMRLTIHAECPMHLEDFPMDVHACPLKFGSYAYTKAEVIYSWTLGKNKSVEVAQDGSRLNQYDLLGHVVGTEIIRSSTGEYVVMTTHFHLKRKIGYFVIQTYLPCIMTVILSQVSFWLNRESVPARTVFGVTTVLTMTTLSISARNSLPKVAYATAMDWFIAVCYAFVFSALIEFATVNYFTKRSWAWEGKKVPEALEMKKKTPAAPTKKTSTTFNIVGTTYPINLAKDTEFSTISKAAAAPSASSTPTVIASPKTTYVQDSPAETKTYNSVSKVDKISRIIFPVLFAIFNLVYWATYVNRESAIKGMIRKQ
T3 sequence (P63079 26-473 partner): as the sequence (P63079 26-473 partner) above
T3 sequence (P18508 39-466): as the sequence (P18508 39-466) above
T5 sequence (P23576 29-451): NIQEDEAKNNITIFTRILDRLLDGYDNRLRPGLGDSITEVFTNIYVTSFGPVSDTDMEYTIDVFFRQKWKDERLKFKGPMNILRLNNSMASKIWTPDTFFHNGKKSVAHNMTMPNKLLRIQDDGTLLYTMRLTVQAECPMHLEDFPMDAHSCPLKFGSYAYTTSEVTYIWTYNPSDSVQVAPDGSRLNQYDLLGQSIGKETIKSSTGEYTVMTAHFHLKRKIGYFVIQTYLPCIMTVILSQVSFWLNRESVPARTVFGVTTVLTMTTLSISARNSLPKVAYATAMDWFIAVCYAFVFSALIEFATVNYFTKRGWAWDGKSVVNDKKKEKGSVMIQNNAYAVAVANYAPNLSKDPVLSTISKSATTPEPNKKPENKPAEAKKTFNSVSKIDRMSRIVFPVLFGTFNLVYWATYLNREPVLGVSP
T5 sequence (P63079 26-473 partner): as the sequence (P63079 26-473 partner) above
T5 sequence (P18508 39-466): as the sequence (P18508 39-466) above
T1 sequence (P23576 29-451): as the sequence (P23576 29-451) above
T1 sequence (P63079 26-473 partner): as the sequence (P63079 26-473 partner) above
T1 sequence (P18508 39-466): as the sequence (P18508 39-466) above

| Compound | modulation of GABA-induced chloride ion flux (in words) (α2β3γ2-GABAA receptors) | modulation of GABA currents in all receptor subtypes (in words) [1] | Ki [2] | Ki [3] | Ki [4] | preference / selectivity for α5-containing receptors [4] | Ki [5] | displacement of [3H]flunitrazepam at α2β3γ2 (in words) [5] | displacement of [3H]flunitrazepam in all receptor subtypes (in words) [6] | subtype selectivity of binding (in words) [6] | modulation of GABA-induced currents at 10 μM (α2β3γ2-GABAA receptors; drug 10 μM) | activity in the oocyte assay at drug concentrations of ≤1 μM (α2β3γ2-GABAA receptors) | binding to GABAA receptors (in words) (GABAA receptors) | lower affinity compared to the S isomer, α1-, α3-, and α5-containing receptors [7] | lower affinity compared to the S isomer, α2-containing receptors [8] |
| --- | --- | --- | --- | --- | --- | --- | --- | --- | --- | --- | --- | --- | --- | --- | --- |
| CCOC(=O)c1ncn2c1[C@@H](C)N=C(c1ccccc1F)c1cc(Br)ccc1-2 [compound 1-R] | positive allosteric modulators | positive modulation | 273 ± 41 nM | 501 ± 79 nM | 56 ± 8 nM | ~5 fold | 253 ± 31 nM | retained its potential to displace the radioligand | potently replaced | – | – | – | – | – | – |
| C#Cc1ccc2c(c1)C(c1ccccc1)=N[C@@H](C)c1nnc(C)n1-2 [compound 2-S] | positive allosteric modulators | positive modulation | 663 ± 21 nM | 656 ± 110 nM | 80 ± 4 nM | – | 164 ± 15 nM | intermediate to high binding affinities | potently replaced | significant higher binding affinities in α2 and α5 GABAAR subtypes than in α1 and α3 subtypes | – | – | – | – | – |
| CCOC(=O)c1ncn2c1[C@H](C)N=C(c1ccccc1F)c1cc(Br)ccc1-2 [compound 1-S] | positive allosteric modulators | positive modulation | 190 ± 55 nM | 136 ± 24 nM | 17 ± 5 nM | > 4 fold | 67 ± 9 nM | intermediate to high binding affinities | potently replaced | – | – | – | – | – | – |
| C#Cc1ccc2c(c1)C(c1ccccc1)=N[C@H](C)c1nnc(C)n1-2 [compound 2-R] | – | mainly modulatory silent | > 10000 nM | > 10000 nM | > 10000 nM | – | > 10000 nM | inactive | failed to displace | – | slight positive modulation | complete loss of activity | – | – | – |
| C#Cc1ccc2c(c1)C(c1ccccc1F)=N[C@@H](C)c1c(C(=O)OCC)ncn1-2 [SH-053-2′F-S-CH3] | – | – | – | – | – | – | – | – | – | – | – | – | high affinity | – | – |
| C[C@@H]1N=C(c2ccccc2)c2cc(Br)ccc2NC1=O [compound 3-S] | positive allosteric modulators | positive modulation | 64 ± 2 nM | 102 ± 7 nM | 31 ± 5 nM | – | 61 ± 10 nM | intermediate to high binding affinities | potently replaced | low subtype selectivity | – | – | – | – | – |
| C[C@H]1N=C(c2ccccc2)c2cc(Br)ccc2NC1=O [compound 3-R] | – | mainly modulatory silent | > 10000 nM | > 10000 nM | > 10000 nM | – | > 10000 nM | inactive | failed to displace | – | – | complete loss of activity | – | – | – |
| C#Cc1ccc2c(c1)C(c1ccccc1F)=N[C@H](C)c1c(C(=O)OCC)ncn1-2 [SH-053-2′F-R-CH3] | – | – | – | – | – | – | – | – | – | – | – | – | high affinity | 3–5 fold | 30 fold |
